# Measured values taken from US12146004B2, “Polymyxin compounds and uses thereof” (priority 2014, dated 2024).
# Like-named read-outs stand apart in the source and are kept apart here. Bridge positions count the residues as written; N and C are the ends. Square brackets hold non-standard residues; d marks the D form. Peptide text beside a SMILES is read from it. * marks the point of attachment. ξ: configuration not given here. dCha = N[C@H](CC1CCCCC1)C(=O)O; Thr(3ξ) = CC(O)[C@H](N)C(=O)O; X28 = NCCC(C(=O)*)c1ccccc1Cl; Dab = NCC[C@H](N)C(=O)O; Dap = NC[C@H](N)C(=O)O; X18 = CCCCC(CCN)C(=O)*
# Legend:
# Format in all cases: cell-based
# Escherichia coli = tested on: Escherichia coli
# Summary of the method: (§1)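 In vitro susceptibility was determined across up to nine strains of each pathogen, some resistant. Potency is given as MIC, μg/mL.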
# Acinetobacter baumannii = tested on: Acinetobacter baumannii
# Summary of the method: as §1
# Pseudomonas aeruginosa = tested on: Pseudomonas aeruginosa
# Summary of the method: as §1
# Klebsiella pneumoniae = tested on: Klebsiella pneumoniae
# Summary of the method: as §1
MIC E. coli 058 (Escherichia coli),MIC E. coli 061 (Escherichia coli),MIC E. coli ATCC 25922 (Escherichia coli),MIC A. baumanii 053 (Acinetobacter baumannii),MIC A. baumanii 056 (Acinetobacter baumannii),MIC A. baumanii ATCC BAA-747 (Acinetobacter baumannii),MIC P. aeruginosa 068 (Pseudomonas aeruginosa),MIC P. aeruginosa 070 (Pseudomonas aeruginosa),MIC P. aeruginosa ATCC 27853 (Pseudomonas aeruginosa),MIC K. pneumoniae 063 (Klebsiella pneumoniae),MIC K. pneumoniae 065 (Klebsiella pneumoniae),MIC K. pneumoniae ATCC 4352 (Klebsiella pneumoniae),MIC A. baumanii NCTC 13424 (Acinetobacter baumannii),MIC P. aeruginosa CCUG 59347 (Pseudomonas aeruginosa),MIC K. pneumoniae ATCC 13882 (Klebsiella pneumoniae),Compound,other results
16 µg/mL,64 µg/mL,1 µg/mL,>64 µg/mL,32 µg/mL,2 µg/mL,8 µg/mL,16 µg/mL,1 µg/mL,>64 µg/mL,64 µg/mL,1 µg/mL,–,–,–,"CC(C)CC1CNCC(C(=O)N[C@H](C(=O)N[C@@H](CN)C(=O)N[C@H]2CCNC(=O)[C@H]([C@@H](C)O)NC(=O)[C@H](CCN)NC(=O)[C@H](CCN)NC(=O)[C@H](CC(C)C)NC(=O)[C@@H](Cc3ccc(Br)cc3)NC(=O)[C@H](CCN)NC2=O)C(C)O)C1 (single isomer, unassigned; isomer 1) [Example 11, (trans-5-(isobutyl-piperidine)-3-carbonyl L-Thr-L-Dap-polymyxin [D-(4-bromo Phe)]-6] hept apeptide Isomer 1]",MIC E. coli 059 (Escherichia coli): 32 µg/mL; MIC E. coli 060 (Escherichia coli): 16 µg/mL; MIC K. pneumoniae 062 (Klebsiella pneumoniae): >64 µg/mL; MIC K. pneumoniae 064 (Klebsiella pneumoniae): >64 µg/mL; MIC K. pneumoniae 066 (Klebsiella pneumoniae): >64 µg/mL; MIC K. pneumoniae 067 (Klebsiella pneumoniae): >64 µg/mL
8 µg/mL,–,0.125 µg/mL,–,–,0.5 µg/mL,–,–,0.5 µg/mL,–,–,–,0.5 µg/mL,0.5 µg/mL,0.25 µg/mL,"CC(C)C[C@@H]1NC(=O)[C@@H](CC2CCCCC2)NC(=O)[C@H](CCN)NC(=O)[C@@H](NC(=O)[C@H](CN)NC(=O)[C@@H](NC(=O)C(CCN)c2ccccc2Cl)[C@@H](C)O)CCNC(=O)[C@H]([C@@H](C)O)NC(=O)[C@H](CCN)NC(=O)[C@H](CCN)NC1=O (stereo partly drawn) [Example 76, 4-amino-2-(2-chlorophenyl) butanoyl L-Thr-L-Dap-polymyxin [D-cyclohexylalanine]-6 heptapeptide.] (X28-T[Dap][Dab][Dab][dCha]L[Dab][Dab]T; lactam 3-C)",–
16 µg/mL,–,0.125 µg/mL,–,–,0.5 µg/mL,–,–,0.5 µg/mL,–,32 µg/mL,–,0.25 µg/mL,1 µg/mL,0.25 µg/mL,"CC(C)CCC(CCN)C(=O)N[C@H](C(=O)N[C@@H](CCN)C(=O)N[C@H]1CCNC(=O)[C@H]([C@@H](C)O)NC(=O)[C@H](CCN)NC(=O)[C@H](CCN)NC(=O)[C@H](CC(C)C)NC(=O)[C@@H](CC2CCCCC2)NC(=O)[C@H](CCN)NC1=O)[C@@H](C)O (single isomer, unassigned; isomer 2) [Example 89, 2-(2-aminoethyl)-5-methylhexanoyl polymyxin [D-cyclohexylalanine-6]nonapeptide. Isomer 2]",–
4 µg/mL,–,0.06 µg/mL,–,–,0.125 µg/mL,–,–,0.25 µg/mL,–,8 µg/mL,–,0.125 µg/mL,1 µg/mL,0.25 µg/mL,"CCC(CC)CC(CCN)C(=O)N[C@H](C(=O)N[C@@H](CCN)C(=O)N[C@H]1CCNC(=O)[C@H]([C@@H](C)O)NC(=O)[C@H](CCN)NC(=O)[C@H](CCN)NC(=O)[C@H](CC(C)C)NC(=O)[C@@H](CC2CCCCC2)NC(=O)[C@H](CCN)NC1=O)[C@@H](C)O (single isomer, unassigned; isomer 2) [Example 92, 2-(2-aminoethyl)-4-ethylhexanoyl polymyxin [D-cyclohexylalanine]-6 nonapeptide. Isomer 2]",–
2 µg/mL,8 µg/mL,0.25 µg/mL,–,8 µg/mL,0.06 µg/mL,2 µg/mL,1 µg/mL,0.25 µg/mL,16 µg/mL,0.5 µg/mL,0.125 µg/mL,0.06 µg/mL,0.5 µg/mL,0.25 µg/mL,"CC(C)C[C@@H]1NC(=O)[C@@H](CC2CCCCC2)NC(=O)[C@H](CCN)NC(=O)[C@@H](NC(=O)[C@H](CN)NC(=O)[C@@H](NC(=O)C(CCN)c2ccc(F)cc2)C(C)O)CCNC(=O)[C@H]([C@@H](C)O)NC(=O)[C@H](CCN)NC(=O)[C@H](CCN)NC1=O (single isomer, unassigned; isomer 2) [Example 44, 4-amino-2-(4-fluorophenyl) butanoyl L-Thr-L-Dap-polymyxin [D-cyclohexylalanine]-6 heptapeptide. Isomer 2]",MIC E. coli NCTC 9001 (Escherichia coli): 0.03 µg/mL
–,–,–,–,–,–,–,–,–,–,–,–,–,–,–,"CC(C)C[C@@H]1NC(=O)[C@@H](CC2CCCCC2)NC(=O)[C@H](CCN)NC(=O)[C@@H](NC(=O)[C@H](CCN)NC(=O)[C@@H](NC(=O)CC(CN)Cc2ccccc2)[C@@H](C)O)CCNC(=O)[C@H]([C@@H](C)O)NC(=O)[C@H](CCN)NC(=O)[C@H](CCN)NC1=O (single isomer, unassigned; isomer 1) [Example 66, 4-amino-3-benzylbutanoyl polymyxin [D-cyclohexylalanine]-6 nonapeptide isomer 1]",MIC E. coli 058 (Escherichia coli; strain 058): 8 µg/mL; MIC E. coli 061 (Escherichia coli; strain 061): 32 µg/mL; MIC E. coli ATCC 25922 (Escherichia coli; strain ATCC 25922): 0.125 µg/mL; MIC A. baumanii 053 (Acinetobacter baumannii; strain 053): >64 µg/mL; MIC A. baumanii 056 (Acinetobacter baumannii; strain 056): 64 µg/mL; MIC A. baumanii ATCC BAA-747 (Acinetobacter baumannii; strain ATCC BAA-747): 0.125 µg/mL; MIC A. baumanii NCTC 13424 (Acinetobacter baumannii; strain NCTC 13424): 0.06 µg/mL; MIC P. aeruginosa 068 (Pseudomonas aeruginosa; strain 068): 8 µg/mL; MIC P. aeruginosa 070 (Pseudomonas aeruginosa; strain 070): 32 µg/mL; MIC P. aeruginosa ATCC 27853 (Pseudomonas aeruginosa; strain ATCC 27853): 0.25 µg/mL; MIC P. aeruginosa CCUG 59347 (Pseudomonas aeruginosa; strain CCUG 59347): 0.5 µg/mL; MIC K. pneumoniae 063 (Klebsiella pneumoniae; strain 063): 64 µg/mL; MIC K. pneumoniae 065 (Klebsiella pneumoniae; strain 065): 4 µg/mL; MIC K. pneumoniae ATCC 13882 (Klebsiella pneumoniae; strain ATCC 13882): 0.125 µg/mL
8 µg/mL,–,0.125 µg/mL,–,–,1 µg/mL,–,–,0.5 µg/mL,–,2 µg/mL,–,2 µg/mL,0.5 µg/mL,0.125 µg/mL,"CC(C)C[C@@H]1NC(=O)[C@@H](CC2CCCCC2)NC(=O)[C@H](CCN)NC(=O)[C@@H](NC(=O)[C@H](CCN)NC(=O)[C@@H](NC(=O)C(CCN)Cc2ccccc2)C(C)O)CCNC(=O)[C@H]([C@@H](C)O)NC(=O)[C@H](CCN)NC(=O)[C@H](CCN)NC1=O (single isomer, unassigned; isomer 2) [Example 36, 4-amino-2-benzylbutanoyl-polymyxin [D-cyclohexylalanine]-6 nonapeptide. isomer 2]",–
2 µg/mL,2 µg/mL,2 µg/mL,2 µg/mL,2 µg/mL,2 µg/mL,4 µg/mL,4 µg/mL,2 µg/mL,4 µg/mL,2 µg/mL,2 µg/mL,–,–,–,"CCCCCC/C=C/c1ccc(C[C@H]2NC(=O)[C@H](CCN)NC(=O)[C@@H](NC(=O)[C@H](CN)NC(=O)[C@@H](NC(=O)C3CNCC(CC(C)C)C3)C(C)O)CCNC(=O)[C@H]([C@@H](C)O)NC(=O)[C@H](CCN)NC(=O)[C@H](CCN)NC(=O)[C@H](CC(C)C)NC2=O)cc1 (single isomer, unassigned; isomer 2) [Example 18, (trans-5-(isobutyl-piperidine)-3-carbonyl L-Thr-L-Dap-polymyxin [D-(4-(E)-oct-1-enyl)-Phe]-6]heptapeptide Isomer 2]",MIC E. coli 059 (Escherichia coli): 1 µg/mL; MIC E. coli 060 (Escherichia coli): 2 µg/mL; MIC K. pneumoniae 062 (Klebsiella pneumoniae): 2 µg/mL; MIC K. pneumoniae 064 (Klebsiella pneumoniae): 4 µg/mL; MIC K. pneumoniae 066 (Klebsiella pneumoniae): 2 µg/mL; MIC K. pneumoniae 067 (Klebsiella pneumoniae): 4 µg/mL
8 µg/mL,16 µg/mL,0.125 µg/mL,>64 µg/mL,64 µg/mL,0.06 µg/mL,4 µg/mL,8 µg/mL,0.5 µg/mL,16 µg/mL,2 µg/mL,–,0.125 µg/mL,0.5 µg/mL,0.25 µg/mL,"CCCCC(CCN)C(=O)N[C@H](C(=O)N[C@@H](CCN)C(=O)N[C@H]1CCNC(=O)[C@H]([C@@H](C)O)NC(=O)[C@H](CCN)NC(=O)[C@H](CCN)NC(=O)[C@H](CC(C)C)NC(=O)[C@@H](CC2CCCCC2)NC(=O)[C@H](CCN)NC1=O)C(C)O (stereo partly drawn) [Example 40, 2-(2-aminoethyl) hexanoyl [D-cyclohexylalanine]-6 nonapeptide.] (X18-[Thr(3ξ)][Dab][Dab][Dab][dCha]L[Dab][Dab]T; lactam 3-C)",MIC E. coli NCTC 9001 (Escherichia coli): 0.03 µg/mL
–,–,–,–,–,–,–,–,–,–,–,–,–,–,–,2-Aminomethyl-4- methyl pentanoyl polymyxin L-Thr-L-Dap- polymyxin [D-{4-(4- trifluoromethyl) phenyl} Phe]-6]heptapeptide. Isomer 1 [Example 19],MIC E. coli 058 (Escherichia coli; strain 058): 16 µg/mL; MIC E. coli ATCC 25922 (Escherichia coli; strain ATCC 25922): 1 µg/mL; MIC A. baumanii ATCC BAA-747 (Acinetobacter baumannii; strain ATCC BAA-747): 1 µg/mL; MIC P. aeruginosa ATCC 27853 (Pseudomonas aeruginosa; strain ATCC 27853): 2 µg/mL; MIC K. pneumoniae 065 (Klebsiella pneumoniae; strain 065): 16 µg/mL; MIC K. pneumoniae ATCC 4352 (Klebsiella pneumoniae; strain ATCC 4352): 1 µg/mL
